Each structure is given as a SMILES string. Counter-ions that a name gives are not always drawn. Bounds are passed on as bounds.

This test has as its target T1, hCCR2b (Homo sapiens, UniProt P41597).
T1 sequence (P41597 1-360 isoform P41597-2): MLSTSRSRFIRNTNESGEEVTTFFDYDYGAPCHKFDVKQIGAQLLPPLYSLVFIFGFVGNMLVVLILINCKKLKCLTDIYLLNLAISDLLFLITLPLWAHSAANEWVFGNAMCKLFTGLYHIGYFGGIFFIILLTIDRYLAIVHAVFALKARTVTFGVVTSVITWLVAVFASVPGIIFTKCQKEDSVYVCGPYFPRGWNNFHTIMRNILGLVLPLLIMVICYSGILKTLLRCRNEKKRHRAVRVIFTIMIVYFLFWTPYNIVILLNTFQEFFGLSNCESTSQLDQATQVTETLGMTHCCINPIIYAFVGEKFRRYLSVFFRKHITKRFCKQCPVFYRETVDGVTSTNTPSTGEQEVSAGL
Briefly: CCR2 binding assay ([125I]MCP-1, SPA, CHO cell membranes). To be noted: membranes from CHO cells expressing hCCR2b, 50 pM [125I]MCP-1; read-out: Binding hCCR2 (Ki). Also on record: expressed in transfected cells; host or cells: CHO cells (membrane preparation). How it is done:
Membranes were prepared from CHO cells expressing mCCR2b or hCCR2b for use in ligand binding studies. Cells were suspended in 50mM Tris-HCL, pH 7.4, 2 mM EDTA, 250 mM Sucrose and 1x Complete EDTA-free protease inhibitor cocktail (Roche) (Buffer A), and disrupted at 4°C by N2 decompression using a cell disruption bomb (Parr Instrument). Following centrifugation at 200 RCF for 10 min at 4°C, the supernatant was suspended in buffer A and centrifuged again at 19000 RPM (RCSC rotor SS34 code 05 Sorvall Instruments DUPONT) for 90 min at 4°C. The pellet was then suspended in 10 mM HEPES, pH 7.4, 1 mM EDTA, 250 mM Sucrose, and 1x Complete EDTA-free protease inhibitor cocktail (Buffer B) and homogenized using a potter. Membranes were flash frozen in liquid N2 and stored at -80°C. [125I] Monocyte Chemoattractant Protein -1 (MCP-1) (25µCi; Perkin Elmer) was added to test compounds in DMSO (1% final). Membranes and WGA SPA beads (GE Healthcare) were added to give a final volume of 100 µl in 96-well plates with assay concentrations of 50 pM or 100 pM [125I]Monocyte Chemoattractant Protein -1 (respectively for hCCR2b or mCCR2b), 50 mM HEPES, pH 7.4, 5 mM MgCl2, 1 mM CaCl2, 0.1% BSA, 1-5 µg/well of membranes and 100 µg/well of WGA SPA beads. Binding was performed for 90 min at RT with strong agitation of speed 5 (Heidolph Titramax 100 SCITEC) and bound radioactivity was measured on a PerkinElmer 1450 MicroBeta counter. Specific binding was calculated by subtracting remaining radioactivity in the presence of 1000-fold excess of unlabeled compound. Binding data were analyzed using the Genedata Screener® software.
Consider `CCN1CCC2(CC1)OC(=O)C(C)=C2C(=O)N1CCC(c2cccc(C(F)(F)F)c2)C1` (stereo not shown) [Compound 55, 8-ethyl-3-methyl-4-({3-[3-(trifluoromethyl)phenyl]pyrrolidin-1-yl}carbonyl)-1-oxa-8-azaspiro[4.5]dec-3-en-2-one], for which the inhibitory constant (Ki) was 100 to 500 nM.

`CCN1CCC2(CC1)OC(=O)C(C)=C2C(=O)NCC(=O)Nc1cccc(C(F)(F)F)c1` [Compound 56, 8-ethyl-3-methyl-2-oxo-N-(2-oxo-2-{[3-(trifluoromethyl)phenyl]amino}ethyl)-1-oxa-8-azaspiro[4.5]dec-3-ene-4-carboxamide]: the Ki is less than 50 nM. Consider `CCN1CCC2(CC1)OC(=O)C(C)=C2C(=O)N1CCN(CCc2ccc(F)cc2)CC1` [Compound 58, 8-ethyl-4-({4-[2-(4-fluorophenyl)ethyl]piperazin-1-yl}carbonyl)-3-methyl-1-oxa-8-azaspiro[4.5]dec-3-en-2-one], for which the Ki fell in the range of 100 to 500 nM.

On to `CCN1CCC2(CC1)OC(=O)C(C)=C2C(=O)N1CCC(Nc2cccc(C(F)(F)F)c2)CC1` [Compound 59, 8-ethyl-3-methyl-4-[(4-{[3-(trifluoromethyl)phenyl]amino}piperidin-1-yl)carbonyl]-1-oxa-8-azaspiro[4.5]dec-3-en-2-one], for which the Ki was in the range of 500 to 2000 nM.

Consider `CCN1CCC2(CC1)OC(=O)C(C)=C2C(=O)N1CCN(c2cncc(C(F)(F)F)c2)CC1` [Compound 60, 8-ethyl-3-methyl-4-({4-[5-(trifluoromethyl)pyridin-3-yl]piperazin-1-yl}carbonyl)-1-oxa-8-azaspiro[4.5]dec-3-en-2-one], for which the Ki is 50 to 100 nM.

Turning to `COc1ccccc1CCN1CCC2(CC1)OC(=O)C(C)=C2C(=O)N1CCN(c2cccc(C(F)(F)F)c2)CC1` [Compound 63, 8-[2-(2-methoxyphenyl)ethyl]-3-methyl-4-({4-[3-(trifluoromethyl)phenyl]piperazin-1-yl}carbonyl)-1-oxa-8-azaspiro[4.5]dec-3-en-2-one], the Ki is less than 50 nM. With `CC1=C(C(=O)NCc2ccc(C(F)(F)F)cc2)C2(CCN(C(C)C)CC2)OC1=O` [Compound 64, 8-isopropyl-3-methyl-2-oxo-N-[4-(trifluoromethyl)benzyl]-1-oxa-8-azaspiro[4.5]dec-3-ene-4-carboxamide] the figure was 500 to 2000 nM. Take `COc1ccccc1CCN1CCC2(CC1)OC(=O)C(C)=C2C(=O)N1CCc2ccc(C(F)(F)F)cc2C1` [Compound 65, 8-[2-(2-methoxyphenyl)ethyl]-3-methyl-4-{[7-(trifluoromethyl)-3,4-dihydroisoquinolin-2(1H)-yl]carbonyl}-1-oxa-8-azaspiro[4.5]dec-3-en-2-one]: the Ki was less than 50 nM. For the compound `CCN1CCC2(CC1)OC(=O)C(C)=C2C(=O)Nc1cnn(-c2ccc(C(F)(F)F)cc2)c1` [Compound 67, 8-ethyl-3-methyl-2-oxo-N-{1-[4-(trifluoromethyl)phenyl]-1H-pyrazol-4-yl}-1-oxa-8-azaspiro[4.5]dec-3-ene-4-carboxamide], the Ki lay in the range of 500 to 2000 nM.

`CCN1CCC2(CC1)OC(=O)C(C)=C2C(=O)N1CCN(c2cccc(C)c2)CC1` [Compound 68, 8-ethyl-3-methyl-4-{[4-(3-methylphenyl)piperazin-1-yl]carbonyl}-1-oxa-8-azaspiro[4.5]dec-3-en-2-one]: the Ki lay within 500 to 2000 nM. Regarding `CC1=C(C(=O)NCC(=O)Nc2cccc(C(F)(F)F)c2)C2(CCN(C3CCOCC3)CC2)OC1=O` [Compound 69, 3-methyl-2-oxo-N-(2-oxo-2-{[3-(trifluoromethyl)phenyl]amino}ethyl)-8-(tetrahydro-2H-pyran-4-yl)-1-oxa-8-azaspiro[4.5]dec-3-ene-4-carboxamide], the Ki was less than 50 nM. For the compound `CCN1CCC2(CC1)OC(=O)C(C)=C2C(=O)N1CCN(c2cc(C(F)(F)F)ccn2)CC1` [Compound 70, 8-ethyl-3-methyl-4-({4-[4-(trifluoromethyl)pyridin-2-yl]piperazin-1-yl}carbonyl)-1-oxa-8-azaspiro[4.5]dec-3-en-2-one], the Ki is less than 50 nM. As for `CCN1CCC2(CC1)OC(=O)C(C)=C2C(=O)N1C[C@@H]2C[C@H]1CN2c1cc(C(F)(F)F)ccn1` [Compound 71, 8-ethyl-3-methyl-4-({(1S,4S)-5-[4-(trifluoromethyl)pyridin-2-yl]-2,5-diazabicyclo[2.2.1]hept-2-yl}carbonyl)-1-oxa-8-azaspiro[4.5]dec-3-en-2-one], the Ki is less than 50 nM. In the case of `CCN1CCC2(CC1)OC(=O)C(C)=C2C(=O)N1C[C@@H]2C[C@H]1CN2c1nccc(C(F)(F)F)n1` [Compound 72, 8-ethyl-3-methyl-4-({(1S,4S)-5-[4-(trifluoromethyl)pyrimidin-2-yl]-2.5-diazabicyclo[2.2.1]hept-2-yl}carbonyl)-1-oxa-8-azaspiro[4.5]dec-3-en-2-one], the inhibitory constant (Ki) was less than 50 nM. With `CCN1CCC2(CC1)OC(=O)C(C)=C2C(=O)Nc1ccc(-n2ccc(C(F)(F)F)n2)cc1` [Compound 75, 8-ethyl-3-methyl-2-oxo-N-{4-[3-(trifluoromethyl)-1H-pyrazol-1-yl]phenyl}-1-oxa-8-azaspiro[4.5]dec-3-ene-4-carboxamide] the figure was 500 to 2000 nM.

As to `CC1=C(C(=O)N2CCc3ccc(C(F)(F)F)cc3C2)C2(CCNCC2)OC1=O` [Compound 76, 3-methyl-4-{[7-(trifluoromethyl)-3,4-dihydroisoquinolin-2(1H)-yl]carbonyl}-1-oxa-8-azaspiro[4.5]dec-3-en-2-one, hydrocloride salt], the Ki was less than 50 nM. Take `CC1=C(C(=O)N2CCc3ccc(C(F)(F)F)cc3C2)C2(CCN(C(C)(C)C)CC2)OC1=O` [Compound 77, 8-tert-butyl-3-methyl-4-{[7-(trifluoromethyl)-3,4-dihydroisoquinolin-2(1H)-yl]carbonyl}-1-oxa-8-azaspiro[4.5]dec-3-en-2-one]: the Ki is less than 50 nM.

Take `CC1=C(C(=O)N2CCc3ncc(C(F)(F)F)cc3C2)C2(CCNCC2)OC1=O` [Compound 78, 3-methyl-4-{[3-(trifluoromethyl)-7,8-dihydro-1,6-naphthyridin-6(5H)-yl]carbonyl}-1-oxa-8-azaspiro[4.5]dec-3-en-2-one, hydrocloride salt]: the Ki was in the range of 100 to 500 nM. The value for `CCN1CCC2(CC1C)OC(=O)C(C)=C2C(=O)N1CCc2ccc(C(F)(F)F)cc2C1` (stereo not shown) [Compound 79, 8-ethyl-3,7-dimethyl-4-{[7-(trifluoromethyl)-3,4-dihydroisoquinolin-2(1H)-yl]carbonyl}-1-oxa-8-azaspiro[4.5]dec-3-en-2-one] was less than 50 nM; that for `CCN1CCC2(CC1)OC(=O)C(C)=C2C(=O)N1CCN(c2cccc(F)c2)CC1` [Compound 80, 8-ethyl-4-{[4-(3-fluorophenyl)piperazin-1-yl]carbonyl}-3-methyl-1-oxa-8-azaspiro[4.5]dec-3-en-2-one] was 500 to 2000 nM; that for `CCN1CCC2(CC1)OC(=O)C(C)=C2C(=O)N1CCN(c2cccc(OC(F)(F)F)c2)CC1` [Compound 81, 8-ethyl-3-methyl-4-({4-[3-(trifluoromethoxy)phenyl]piperazin-1-yl}carbonyl)-1-oxa-8-azaspiro[4.5]dec-3-en-2-one] was less than 50 nM.

With `CCN1CCC2(CC1)OC(=O)C(C)=C2C(=O)N1CCN(c2ccc(Cl)c(C(F)(F)F)c2)CC1` [Compound 82, 4-({4-[4-chloro-3-(trifluoromethyl)phenyl]piperazin-1-yl}carbonyl)-8-ethyl-3-methyl-1-oxa-8-azaspiro[4.5]dec-3-en-2-one], the Ki was less than 50 nM. As to `CCN1CCC2(CC1)OC(=O)C(C)=C2C(=O)N1CCC(Nc2ccc(C(F)(F)F)cc2)C1` (stereo not shown) [Compound 83, 8-ethyl-3-methyl-4-[(3-{[4-(trifluoromethyl)phenyl]amino}pyrrolidin-1-yl)carbonyl]-1-oxa-8-azaspiro[4.5]dec-3-en-2-one], the Ki is less than 50 nM. The value for `CCN1CCC2(CC1)OC(=O)C(C)=C2C(=O)N1CCN(c2cccc(C(F)(F)F)c2)CC1C` (stereo not shown) [Compound 84, 8-ethyl-3-methyl-4-({2-methyl-4-[3-(trifluoromethyl)phenyl]piperazin-1-yl}carbonyl)-1-oxa-8-azaspiro[4.5]dec-3-en-2-one] was less than 50 nM. As for `CCN1CCC2(CC1)OC(=O)C(C)=C2C(=O)N1CCc2ncc(C(F)(F)F)cc2C1` [Compound 85, 8-ethyl-3-methyl-4-{[3-(trifluoromethyl)-7,8-dihydro-1,6-naphthyridin-6(5H)-yl]carbonyl}-1-oxa-8-azaspiro[4.5]dec-3-en-2-one], the Ki is less than 50 nM.

Values taken from patent publication EP2508526A1, “Spiroalkene carboxamide derivatives and their use as chemokine receptor modulators” (Ares Trading SA, priority 2011, dated 2012).
